Structures are written as SMILES. Structures can show the parent of a compound that is named as a salt.

Assay [1] has as its target T1, porcine pancreatic PLA2 (Sus scrofa, UniProt P00592).
T1 construct: from tissue; host or cells: porcine pancreas
The assay can be described thus: In Vitro Phospholipase A2 Assay (PLA2). In kind it is biochemical. The note with it: 0.01 M test compound, 37° C., pH 8.0; read-out: PLA2 (difference vs. control). The procedure:
In Vitro Phospholipase A2 Assay (PLA2)
The ability of a compound to modulate PLA2 activity (cleavage of ^14 C-dipalmitoyl phosphotidylcholine at the 2-position to ^14 C-palmitic acid) was quantitated in this assay. The reaction mixture contained Tris buffer (25 mM), pH 8.0, calcium chloride (2.0 mM), bovine serum albumin (0.5 mg), dipalmitoyl phosphotidylcholine (8×10^-5M), (^14 C-palmitoyl)dipalmitoyl phosphotidylcholine (6×10^3cpm), porcine pancreatic PLA2 (3.2 units) and the test compound. The reaction was run at 37° C. in a shaking incubator. The reaction was quenched and an internal standard was added in order to determine sample recovery. The samples were loaded onto C18 columns, eluted with ethanol, and the radioactivity was then measured. […] See Feyen, J. H. M., et al., Journal of Chromatography 259 (1983), pp. 338-340.

The test system of assay [2] is ear edema induced by topical application of TPA (phorbol 12-myristate acetate). The assay can be described thus: TPA-Induced Ear Edema (TPAEE). In kind it is in vivo, Female Swiss Webster mice. The note with it: for TPAEE: 10 μg/ear topical, TPA 10 μg/ear, five hours. The procedure:
TPA-Induced Ear Edema (TPAEE)
The purpose of this assay was to determine the ability of a topically-applied compound to prevent ear edema induced by topical application of TPA (phorbol 12-myristate acetate). Female Swiss Webster mice topically received TPA (10 μg/ear) on the right ear and vehicle on the left ear. The test compound (10 μg/ear) was applied to both ears. After five hours, the animals were sacrificed and an ear punch (4 mm) was taken from each ear. The difference in right and left ear punch weights for each animal was determined to assess activity. […] See Young, J. M. et al., J. Invest. Dermatol., 80 (1983), pp. 48-52.

In assay [3] the test system is naja naja (snake venom) phospholipase A2 -induced paw edema. Put plainly: Phospholipase A2-induced Paw Edema (PIPE). In kind it is in vivo, male Wistar rats. The procedure:
Phospholipase A2 -induced Paw Edema (PIPE)
The ability of compounds to prevent naja naja (snake venom) phospholipase A2 -induced paw edema in male Wistar rats (100-125 g) was measured. PLA2 (3 units/paw) alone or with 0.1M of the test compound was injected in the subplantar region of the rat left hindpaw. Immediately subsequent to the injection and at two hours post administration the paw was immersed in a mercury bath, and paw displacement was measured on a recorder via a transducer. […] See Giessler, A. J. et al., Agents and Actions, Vol. 10, Trends in Inflammation Research (1981), p. 195.

Assay [4] concerns mouse ear edema induced by topical application of arachidonic acid. The assay can be described thus: Arachidonic Acid-Induced Ear Edema (AAEE). In kind it is in vivo, Female Swiss Webster mice. The procedure: Arachidonic Acid-Induced Ear Edema (AAEE)
The purpose of this assay was to determine the ability of a topically-applied compound to prevent mouse ear edema induced by topical application of arachidonic acid. Female Swiss Webster mice topically received vehicle or test compound (1.0 mg/ear) on both ears (10 μl on outer and inner ears). After 30 minutes, the right ear of all groups received arachidonic acid (4 mg/ear) and the left ear received vehicle alone. After an additional 1 hour, the mice were sacrificed and an ear punch (4 mm) was taken from each ear. The difference in right and left ear punch weights for each animal was determined to assess activity. […] See Young, J. M. et al., J. Invest. Dermatol., 80, (1983), pp 48-52.

T1 sequence (P00592 23-146): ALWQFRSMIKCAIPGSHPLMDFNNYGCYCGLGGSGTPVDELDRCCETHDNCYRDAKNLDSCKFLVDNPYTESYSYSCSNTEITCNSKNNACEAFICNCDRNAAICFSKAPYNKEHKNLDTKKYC

For `Nc1ccncc1Oc1ccccc1CO` [2-(4-Amino-3-pyridinyloxy)benzenemethanol oxalate], in assay [1], the inhibition at 10000 µM is 82%.
Turning to `COC(=O)c1ccccc1Oc1cnccc1N` [2-(4-Amino-3-pyridinyloxy)benzoic acid methyl ester hydrochloride], the inhibition at 10000 µM in assay [1] turned out to be 38%.
On to `COc1ccc(Oc2c[n+]([O-])ccc2[N+](=O)[O-])cc1` [3-(4-Methoxyphenoxy)-4-nitropyridine-1-oxide], for which the TPAEE in assay [2] is recorded as -43%.
On to `Cl.Nc1ccncc1Oc1ccccc1` [3-phenoxy-4-pyridinamine hydrochloride, 3-Phenoxy-4-pyridinamine hydrochloride], for which the “PIPE (difference in edema vs. control)” value in assay [3] (0.1 M test compound injected with PLA2 (3 units/paw), subplantar, rat hindpaw, two hours post administration) is -79%. Moreover, in assay [1], the inhibition at 10000 µM is 95%. In addition, in assay [4] (1 mg/ear topical, arachidonic acid 4 mg/ear, 1 hour), the AAEE was -31%. Also, the TPAEE in assay [2] was -60%.
In the case of `CCOC(=O)Cc1ccc(Oc2cnccc2N)cc1.O=C(O)C(=O)O` [4-(4-Amino-3-pyridinyloxy)benzeneacetic acid ethyl ester oxalate], the TPAEE in assay [2] is -39%.
As for `Nc1cnccc1Oc1ccccc1` [4-phenoxy-3-pyridinamine, 4-Phenoxy-3-pyridinamine], in assay [2], the TPAEE was -34%.
For the molecule `CC(=O)Nc1ccncc1Oc1ccccc1` [N-(3-Phenoxy-4-pyridinyl)acetamide hydrochloride], the inhibition at 10000 µM in assay [1] is 73%.
Consider `C[C@]12CCC(=O)C=C1CC[C@@H]1[C@@H]2[C@@H](O)C[C@@]2(C)[C@H]1CC[C@]2(O)C(=O)CO` [hydrocortisone, reference compound], for which, in assay [3] (standard, rat paw edema), the “ED50 (PIPE standard)” value came out at 0.46 M. Moreover, the “ED50 (TPAEE standard)” value in assay [2] (standard, topical) was 47 μg/ear.
As for `COc1ccc2c(c1)c(CC(=O)O)c(C)n2C(=O)c1ccc(Cl)cc1` [indomethacin, reference compound], in assay [4] (standard, topical), the “ED50 (AAEE standard)” value was 1.5 mg/ear.

The record behind these values is patent US4959377A, “Phenoxypyridinamine compounds which are use as a dermatological composition” (Hoechst-Roussel Pharmaceuticals Inc., priority 1989, dated 1990).
